We go through one compound from ChEMBL document CHEMBL1128715, “Synthesis, resolution, and biological evaluation of the four stereoisomers of 4-methylglutamic acid: selective probes of kainate receptors” (J Med Chem, 1995).

What is called IC50 is the point on the concentration scale where inhibition reaches its midpoint. A lower IC50 goes with inhibition by little substance.

The target in this experiment is Glutamate receptor ionotropic, NMDA 2C (Rattus norvegicus, UniProt Q00961). Put plainly: Ability to inhibit [3H]CGS-19,755 binding to NMDA receptors.
Chain of Glutamate receptor ionotropic, NMDA 2C (Q00961 whole entry): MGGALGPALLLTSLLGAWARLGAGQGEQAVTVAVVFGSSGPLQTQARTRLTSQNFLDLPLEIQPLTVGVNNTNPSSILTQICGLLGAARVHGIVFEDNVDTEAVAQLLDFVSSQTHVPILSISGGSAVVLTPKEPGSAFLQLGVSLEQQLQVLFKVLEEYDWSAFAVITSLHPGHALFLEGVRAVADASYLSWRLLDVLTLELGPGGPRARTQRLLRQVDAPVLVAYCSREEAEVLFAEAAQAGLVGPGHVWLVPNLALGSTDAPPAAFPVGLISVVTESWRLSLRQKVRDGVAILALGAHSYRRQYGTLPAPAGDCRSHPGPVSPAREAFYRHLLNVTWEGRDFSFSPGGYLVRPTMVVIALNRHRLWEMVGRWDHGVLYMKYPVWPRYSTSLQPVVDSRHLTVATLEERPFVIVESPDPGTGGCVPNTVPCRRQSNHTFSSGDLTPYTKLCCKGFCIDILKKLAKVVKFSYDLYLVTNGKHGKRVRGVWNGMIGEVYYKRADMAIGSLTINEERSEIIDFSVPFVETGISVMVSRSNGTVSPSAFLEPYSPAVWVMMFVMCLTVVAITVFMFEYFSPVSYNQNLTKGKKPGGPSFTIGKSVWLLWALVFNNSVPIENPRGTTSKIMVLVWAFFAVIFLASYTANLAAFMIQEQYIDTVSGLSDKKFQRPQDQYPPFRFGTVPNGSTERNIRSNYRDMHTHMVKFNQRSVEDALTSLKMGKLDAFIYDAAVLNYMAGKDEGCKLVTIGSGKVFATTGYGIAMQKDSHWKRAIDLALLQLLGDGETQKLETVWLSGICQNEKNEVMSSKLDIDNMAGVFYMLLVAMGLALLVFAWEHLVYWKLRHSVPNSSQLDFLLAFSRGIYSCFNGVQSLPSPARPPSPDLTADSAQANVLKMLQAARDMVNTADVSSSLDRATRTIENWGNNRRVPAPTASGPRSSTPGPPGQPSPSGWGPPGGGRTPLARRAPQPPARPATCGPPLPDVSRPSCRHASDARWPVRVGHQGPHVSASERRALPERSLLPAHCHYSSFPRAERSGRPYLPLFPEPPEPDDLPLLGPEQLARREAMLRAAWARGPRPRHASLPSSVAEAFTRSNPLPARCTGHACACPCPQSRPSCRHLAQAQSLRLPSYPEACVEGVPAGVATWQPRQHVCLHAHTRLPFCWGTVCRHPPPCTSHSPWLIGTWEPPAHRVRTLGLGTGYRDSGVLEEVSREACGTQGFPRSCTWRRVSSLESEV

For the compound `C[C@H](C[C@H](N)C(=O)O)C(=O)O` [2S,4R-4-METHYLGLUTAMATE], the IC50 was > 7 µM.
